Measurements taken from patent publication US11446351B2, “Composition for treating one or more estrogen related diseases” (LIFEARC, priority 2018, dated 2022).
Counter-ions that a name gives are not always drawn. Where a SMILES comes first, the peptide text is derived from it. [ ]: non-standard residue; d: D form. dPhe(4-Cl) = N[C@H](Cc1ccc(Cl)cc1)C(=O)O; d2Nal = N[C@H](Cc1ccc2ccccc2c1)C(=O)O; d(hCit) = NC(=O)NCCCC[C@@H](N)C(=O)O; Lys(iPr) = CC(C)NCCCC[C@H](N)C(=O)O; d3Pal = N[C@H](Cc1cccnc1)C(=O)O

Columns and labels:
Assay type in all cases: in vivo, human
[1] = tested on: healthy female subjects; assay: Phase I trial (Example 1): progesterone, LH and FSH in serum
Description: A phase I clinical trial with formulation A and B (and placebo) was conducted in order to evaluate the pharmacokinetics, pharmacodynamics, safety and tolerability of Teverelix TFA.
The formulations were each injected subcutaneous (s.c.) as follows: • A single dosage of formulation A (60 mg Teverelix TFA) administered s.c. on day 3±1 of the menstrual cycle, to 8 healthy female subjects • A single dosage of formulation A placebo was administered s.c. to on day 3±1 of the menstrual cycle, to 4 healthy female subjects • Two dosages of formulation B (45 mg Teverelix TFA) administered s.c. to 8 healthy female subjects. The first dosage on day 3±1 of the menstrual cycle and a second dosage administered on day 10±1 of the menstrual cycle, and • two dosages of formulation B placebo was administered s.c. to 4 healthy female subjects. The first dosage on day 3±1 of the […] menstrual cycle and a second dosage administered on day 10±1 of the menstrual cycle.

[2] = tested on: women; assay: Phase I study (Example 2): bone marker CTX in serum
Description: In order to evaluate the effect of the treatment with Teverelix TFA on the bone mineral density, two biochemical bone mineral markers was measured in the subjects. Telopeptides type I collagen, cross-linked, […] (CTX) was measured in serum of the treated subjects, and deoxypyridinoline (DPD) was measured in the subject's urine.
Said bone markers were measured on the following days in the test period: 1 (pre-dose), 15, 29, 43, 57, 64
DPD is a dynamic biochemical marker of bone loss. An increase in DPD levels in an early morning urine specimen is a reliable indicator of increased bone loss. The CTX test measures for the presence and concentration of a crosslink peptide sequence of type I collagen, found, among other tissues, in bone. This specific peptide sequence relates to bone turnover because it is the portion that is cleaved by osteoclasts during bone resorption, and its serum levels are therefore proportional to osteoclastic activity at the time the blood sample is drawn.
The concentration of DPD and CTX test were carried out at MOS Pharma Services, Central Lab GmbH, Grossmoorbogen 25, 21079 Hamburg, Germany by means of highly sensitive and specific validated chemi-luminescent (CUA) and enzyme-linked immuno-sorbent (ELISA) methods. The results are shown in FIG. 7 and table 6 respectively.

[3] = tested on: women; assay: Phase I study (Example 2): estradiol concentrations in serum
Description: Two formulations comprising either 45 mg or 30 mg Teverelix TFA and a placebo formulations, were prepared as described in example 1, i.e. the following formulations were prepared
The respective formulations were each injected subcutaneous (s.c.) to 24 subjects—12 per group i.e. 8 on active drug 4 on placebo per group. All subjects received a dose on either the active or placebo s.c. on day 3±1 of the menstrual cycle, i.e. • A single dosage of formulation B (45 mg Teverelix TFA) administered s.c. on day 3±1 of the menstrual cycle, • A single dosages of formulation C (30 mg Teverelix TFA) administered s.c. on day 3±1 of the menstrual cycle, and • A single dosage of formulation B placebo or formulation C placebo administered s.c. on day 3±1 of the menstrual cycle.
The concentration of Teverelix TFA, and Estradiol was measured over a period of 63 days. Additionally, the effect on Teverelix TFA on two bone markers was measured.
The mean estradiol concentration in the respective subjects was measured as described in example 1.

CC(=O)N[C@H](Cc1ccc2ccccc2c1)C(=O)N[C@H](Cc1ccc(Cl)cc1)C(=O)N[C@H](Cc1cccnc1)C(=O)N[C@@H](CO)C(=O)N[C@@H](Cc1ccc(O)cc1)C(=O)N[C@H](CCCCNC(N)=O)C(=O)N[C@@H](CC(C)C)C(=O)N[C@@H](CCCCNC(C)C)C(=O)N1CCC[C@H]1C(=O)N[C@H](C)C(N)=O [Teverelix TFA, N-Ac-d-Nal^1,d-pCl-Phe^2,d-Pal^3,d-(Hci)^6,Lys(iPr)^8,d-Ala^10 trifluoroacetate] (Ac-[d2Nal][dPhe(4-Cl)][d3Pal]SY[d(hCit)]L[Lys(iPr)]P[dA]-NH2; C-terminus assumed)
concentration of progesterone following dosing ([1]; FIG. 2): decreased | concentration of LH following dosing ([1]; FIG. 3): decreased | concentration of FSH following dosing ([1]; FIG. 4): decreased | alteration in bone marker serum CTX during the study ([2]; 30 mg and 45 mg, days 1-64): no significant alteration | CTX in serum, Mean ([2]; 30 mg, Day 1 (pre-dose)): 16.7 ng/L | CTX in serum, Mean ([2]; 30 mg, Day 15): 17.1 ng/L | CTX in serum, Mean ([2]; 30 mg, Day 29): 17 ng/L | CTX in serum, Mean ([2]; 30 mg, Day 43): 16.7 ng/L | CTX in serum, Mean ([2]; 30 mg, Day 57): 16.5 ng/L | CTX in serum, Mean ([2]; 30 mg, Day 64): 16.2 ng/L | CTX in serum, Mean ([2]; 45 mg, Day 1 (pre-dose)): 22.6 ng/L | CTX in serum, Mean ([2]; 45 mg, Day 15): 22.4 ng/L | CTX in serum, Mean ([2]; 45 mg, Day 29): 21.6 ng/L | CTX in serum, Mean ([2]; 45 mg, Day 43): 22 ng/L | CTX in serum, Mean ([2]; 45 mg, Day 57): 19.3 ng/L | CTX in serum, Mean ([2]; 45 mg, Day 64): 17.3 ng/L | Mean Estradiol concentration in serum ([3]; 30 mg dosage, day 0 (baseline)): 27.7 ng/L | Mean Estradiol concentration in serum ([3]; 30 mg dosage, day 0.25): 16.1 ng/L | Mean Estradiol concentration in serum ([3]; 30 mg dosage, day 0.5): 13.8 ng/L | Mean Estradiol concentration in serum ([3]; 30 mg dosage, day 1): 12.3 ng/L | Mean Estradiol concentration in serum ([3]; 30 mg dosage, day 2 (nadir)): 11.2 ng/L | Mean Estradiol concentration in serum ([3]; 30 mg dosage, day 3): 13.7 ng/L | Mean Estradiol concentration in serum ([3]; 30 mg dosage, day 4): 19.4 ng/L | Mean Estradiol concentration in serum ([3]; 30 mg dosage, day 5): 22.6 ng/L | Mean Estradiol concentration in serum ([3]; 30 mg dosage, day 6): 24.4 ng/L | Mean Estradiol concentration in serum ([3]; 30 mg dosage, day 7): 31.0 ng/L | Mean Estradiol concentration in serum ([3]; 30 mg dosage, day 9): 50.2 ng/L | Mean Estradiol concentration in serum ([3]; 30 mg dosage, day 11): 46.5 ng/L | Mean Estradiol concentration in serum ([3]; 30 mg dosage, day 13): 59.9 ng/L | Mean Estradiol concentration in serum ([3]; 30 mg dosage, day 15): 36.3 ng/L | Mean Estradiol concentration in serum ([3]; 30 mg dosage, day 17): 38.7 ng/L | Mean Estradiol concentration in serum ([3]; 30 mg dosage, day 19): 51.4 ng/L | Mean Estradiol concentration in serum ([3]; 30 mg dosage, day 21): 64.5 ng/L | Mean Estradiol concentration in serum ([3]; 30 mg dosage, day 28): 67.4 ng/L | Mean Estradiol concentration in serum ([3]; 30 mg dosage, day 35): 60.7 ng/L | Mean Estradiol concentration in serum ([3]; 30 mg dosage, day 42): 58.6 ng/L | Mean Estradiol concentration in serum ([3]; 30 mg dosage, day 49): 60.5. ng/L | Mean Estradiol concentration in serum ([3]; 30 mg dosage, day 56): 105.1 ng/L | Mean Estradiol concentration in serum ([3]; 30 mg dosage, day 63): 90.7 ng/L | mean estradiol level over the prolonged period ([3]; 30 mg dose): 40.5 pg/mL | day on which estradiol levels returned to baseline ([3]; 30 mg group): ≤ 8 days | women who ovulated during the study period (based on peak estradiol levels) ([3]; 30 mg group): one of the 8 | Mean Estradiol concentration in serum ([3]; 45 mg dosage, day 0 (baseline)): 21.5 ng/L | Mean Estradiol concentration in serum ([3]; 45 mg dosage, day 0.25): 16.3 ng/L | Mean Estradiol concentration in serum ([3]; 45 mg dosage, day 0.5): 11.5 ng/L | Mean Estradiol concentration in serum ([3]; 45 mg dosage, day 1): 8.4 ng/L | Mean Estradiol concentration in serum ([3]; 45 mg dosage, day 2 (nadir)): 7.5 ng/L | Mean Estradiol concentration in serum ([3]; 45 mg dosage, day 3): 11.4 ng/L | Mean Estradiol concentration in serum ([3]; 45 mg dosage, day 4): 12.3 ng/L | Mean Estradiol concentration in serum ([3]; 45 mg dosage, day 5): 13.3 ng/L | Mean Estradiol concentration in serum ([3]; 45 mg dosage, day 6): 17.5 ng/L | Mean Estradiol concentration in serum ([3]; 45 mg dosage, day 7): 17.8 ng/L | Mean Estradiol concentration in serum ([3]; 45 mg dosage, day 9): 22.6 ng/L | Mean Estradiol concentration in serum ([3]; 45 mg dosage, day 11): 36.4 ng/L | Mean Estradiol concentration in serum ([3]; 45 mg dosage, day 13): 54.9 ng/L | Mean Estradiol concentration in serum ([3]; 45 mg dosage, day 15): 91.6 ng/L | Mean Estradiol concentration in serum ([3]; 45 mg dosage, day 17): 105.9 ng/L | Mean Estradiol concentration in serum ([3]; 45 mg dosage, day 19): 115.1 ng/L | Mean Estradiol concentration in serum ([3]; 45 mg dosage, day 21): 126.1 ng/L | Mean Estradiol concentration in serum ([3]; 45 mg dosage, day 28): 80.9 ng/L | Mean Estradiol concentration in serum ([3]; 45 mg dosage, day 35): 41.6 ng/L | Mean Estradiol concentration in serum ([3]; 45 mg dosage, day 42): 67.4 ng/L | Mean Estradiol concentration in serum ([3]; 45 mg dosage, day 49): 92.4 ng/L | Mean Estradiol concentration in serum ([3]; 45 mg dosage, day 56): 104.9 ng/L | Mean Estradiol concentration in serum ([3]; 45 mg dosage, day 63): 47.1 ng/L | mean estradiol level over the prolonged period ([3]; 45 mg dose): 49.0 pg/mL | day on which estradiol levels returned to baseline ([3]; 45 mg group): ≤ 9 days | women who ovulated during the study period (based on peak estradiol levels) ([3]; 45 mg group): 5 of the 8 | Mean Estradiol concentration in serum ([3]; 30 + 45 mg groups, day 0 (baseline)): 24.6 ng/L | Mean Estradiol concentration in serum ([3]; 30 + 45 mg groups, day 0.25): 16.2 ng/L | Mean Estradiol concentration in serum ([3]; 30 + 45 mg groups, day 0.5): 12.7 ng/L | Mean Estradiol concentration in serum ([3]; 30 + 45 mg groups, day 1): 10.4 ng/L | Mean Estradiol concentration in serum ([3]; 30 + 45 mg groups, day 2): 9.4 ng/L | Mean Estradiol concentration in serum ([3]; 30 + 45 mg groups, day 3): 12.6 ng/L | Mean Estradiol concentration in serum ([3]; 30 + 45 mg groups, day 4): 15.8 ng/L | Mean Estradiol concentration in serum ([3]; 30 + 45 mg groups, day 5): 17.9 ng/L | Mean Estradiol concentration in serum ([3]; 30 + 45 mg groups, day 6): 20.9 ng/L | Mean Estradiol concentration in serum ([3]; 30 + 45 mg groups, day 7): 24.4 ng/L | Mean Estradiol concentration in serum ([3]; 30 + 45 mg groups, day 9): 36.4 ng/L | Mean Estradiol concentration in serum ([3]; 30 + 45 mg groups, day 11): 41.8 ng/L | Mean Estradiol concentration in serum ([3]; 30 + 45 mg groups, day 13): 57.2 ng/L | Mean Estradiol concentration in serum ([3]; 30 + 45 mg groups, day 15): 64.0 ng/L | Mean Estradiol concentration in serum ([3]; 30 + 45 mg groups, day 17): 72.3 ng/L | Mean Estradiol concentration in serum ([3]; 30 + 45 mg groups, day 19): 83.3 ng/L | Mean Estradiol concentration in serum ([3]; 30 + 45 mg groups, day 21): 95.3 ng/L | Mean Estradiol concentration in serum ([3]; 30 + 45 mg groups, day 28): 74.1 ng/L | Mean Estradiol concentration in serum ([3]; 30 + 45 mg groups, day 35): 51.1 ng/L | Mean Estradiol concentration in serum ([3]; 30 + 45 mg groups, day 42): 63.0 ng/L | Mean Estradiol concentration in serum ([3]; 30 + 45 mg groups, day 49): 76.4 ng/L | Mean Estradiol concentration in serum ([3]; 30 + 45 mg groups, day 56): 105.0 ng/L | Mean Estradiol concentration in serum ([3]; 30 + 45 mg groups, day 63): 68.9 ng/L
